Results: US9855270B2, “Methods and compositions for modulating estrogen receptor mutants” (priority 2014, dated 2018)
Where two headings read alike, the source gives them in different places.

Experiments:
Type in all cases: cell-based
[1] = system: MCF-7 cells (negative control); assay: MCF-7 Stable Cell Line Viability (UbC HA-ER-α series); conditions: for EC50: Homo sapiens
Text: (§1) MCF-7 Mutant ER-α Stable Cell Line Generation: MCF-7 cells stably expressing wild-type or ER-α mutants were generated by subcloning ESR1 wild-type and mutant cDNAs containing an amino terminal hemagglutinin tag into pCDH-EF1-MCS-(PGK-Puro) (referred to as EF1 HA-ER-α) and pCDH-UbC-MCS-EF1-Hygro (referred to as UbC HA-ER-α) (System Biosciences). The resulting plasmids, in addition to an empty vector negative control, were subsequently cotransfected into HEK293T cells with the pPACKH1 packaging plasmid mix (System Biosciences) according to the manufacturer's protocol. Four days post transfection lentiviral particles were purified from the cell medium, tiered and stored at −80° C. MCF-7 cells were transduced with the purified viral particles and stable cell lines were selected by growth in RPMI containing 10% FBS plus 1 μG/mL puromycin or 200 μG/mL hygromycin for pCDH-EF1-MCS-(PGK-Puro) and pCDH-UbC-MCS-EF1-Hygro, respectively.
(§2) MCF-7 Stable Cell Line Viability: MCF-7 cells were enumerated with a hemacytometer adjusted to a concentration of 40,000 cells per mL in Phenol Free RPMI containing 10% CSS with NEAA and Sodium Pyruvate. 16 microliters of the cell suspension was added to each well of a 384 well tissue culture treated white clear bottom polystyrene plate (Corning) using a Matrix 16 channel electronic pipette. The cells were incubated overnight to allow the cells to adhere. The following day, 16 microliters of Phenol Free RPMI containing 10% CSS with NEAA and Sodium Pyruvate was added to the wells of one plate, followed by 16 μL of CellTiter-Glo (Promega, Madison Wis.) luminescent cell viability reagent using a Matrix 16 channel electronic pipette. […] The “average” of the relative luminescence units (RLUs) of the wells are considered to be the baseline value at time=zero. In addition, a 10 point, 1:5 serial dilution in DMSO (Sigma-Aldrich) was performed using Matrix 12 channel electronic pipette, including DMSO only as […]. 4 μL of each dilution was then added to 196 μL of RPMI containing 10% CSS with NEAA and Sodium Pyruvate. 16 μL of medium containing compound was added to the cells at a final concentration ranging from 10 μM to 5 pM. Compound dilution in media and subsequent addition to cells were carried out using Matrix 12 channel electronic pipettes. After 5 day compound exposure, 16 μL of CellTiter-Glo (Promega, Madison Wis.) luminescent cell viability reagent was added to the cells using a Matrix 16 channel electronic pipette. CellTiter-Glo added to 32 μL of medium without cells was used to obtain a background value. […] The relative luminescence units (RLUs) of each well were measured, and relative proliferation (fold) of each sample was determined as follows: (RLU sample−RLU background)/(RLU at T=0)=relative proliferation
(§3) The UbC promoter is reported by the manufacturer (System Biosciences) to express low to moderate RNA levels while the EF1 promoter expresses high levels (System Biosciences).

[2] = system: MCF-7 cells stably expressing UbC HA-ER-α wild-type; assay: as above; conditions: UbC HA-ER-α Wild-type; for EC50: Homo sapiens, MCF7, read-out: Potency (EC50; nM); for Percent inhibition compared to vehicle: 5-Day Incubation; for Efficacy (Emax): Day 5 relative to Day 0
Text: as §1, §2, §3

[3] = system: MCF-7 cells stably expressing EF1 HA-ER-α L536P; assay: cells; conditions: EF1 HA-ER-α L536P; for Percent inhibition compared to vehicle: 5-Day Incubation; for Efficacy (Emax): Day 5 relative to Day 0; for EC50: Homo sapiens, MCF7, read-out: Potency (EC50; nM)
Text: as §1, §2, §3

[4] = system: MCF-7 cells stably expressing EF1 HA-ER-α L536R; assay: cells; conditions: EF1 HA-ER-α L536R; for Percent inhibition compared to vehicle: 5-Day Incubation; for Efficacy (Emax): Day 5 relative to Day 0; for EC50: Homo sapiens, MCF7, read-out: Potency (EC50; nM)
Text: as §1, §2, §3

[5] = system: MCF-7 cells stably expressing UbC HA-ER-α L536R; assay: cells; conditions: UbC HA-ER-α L536R; for EC50: Homo sapiens, MCF7, read-out: Potency (EC50; nM); for Percent inhibition compared to vehicle: 5-Day Incubation; for Efficacy (Emax): Day 5 relative to Day 0
Text: as §1, §2, §3

[6] = system: MCF-7 cells stably expressing EF1 HA-ER-α wild-type; assay: MCF-7 Stable Cell Line Viability (EF1 HA-ER-α series); set-up: Percent inhibition compared to vehicle: concentration or dose not given beside the values; conditions: EF1 HA-ER-α Wild-type; for Percent inhibition compared to vehicle: 5-Day Incubation; for Efficacy (Emax): Day 5 relative to Day 0; for EC50: Homo sapiens, MCF7, read-out: Potency (EC50; nM)
Text: as §1, §2, §3

[7] = system: MCF-7 cells transduced with an empty EF1 lentiviral vector (negative control); assay: as above; set-up: Percent inhibition compared to vehicle: concentration or dose not given beside the values; conditions: for EC50: Homo sapiens, MCF7, Receptor None (empty EF1 lentiviral vector), read-out: Potency (EC50; nM); for Percent inhibition compared to vehicle / Efficacy (Emax): Receptor None (empty EF1 lentiviral vector); for Percent inhibition compared to vehicle: 5-Day Incubation; for Efficacy (Emax): Day 5 relative to Day 0
Text: as §1, §2, §3

[8] = Receptor None (MCF-7 negative control), Agonist Mode, −E2, Day 5 relative to Day 0
[9] = Antagonist Mode, −E2 (Table 27)

C[C@]12CC[C@@H]3c4ccc(O)cc4C[C@@H](CCCCCCCCC[S+]([O-])CCCC(F)(F)C(F)(F)F)[C@H]3[C@@H]1CC[C@@H]2O (some centres unmarked) [Fulvestrant]
EC50 ([1]; MCF7, read-out: Potency (EC50; nM), Receptor None (MCF-7 negative control), Agonist Mode, −E2): 0.05 ± 0.017 nM
EC50 ([1]; MCF7, read-out: Potency (EC50; nM), Receptor None (MCF-7 negative control), Antagonist Mode, +E2): 0.327 ± 0.324 nM
Percent inhibition compared to vehicle ([1]; Receptor None (MCF-7 negative control), Agonist Mode, −E2, 5-Day Incubation): 28%
Efficacy (Emax) [1, 8]: 1.27 ± 0.24
Percent inhibition compared to vehicle ([1]; Receptor None (MCF-7 negative control), Antagonist Mode, +E2, 5-Day Incubation): 64%
Efficacy (Emax) ([1]; Receptor None (MCF-7 negative control), Antagonist Mode, +E2, Day 5 relative to Day 0): 1.15 ± 0.01
EC50 ([2]; Agonist Mode, −E2): 0.08 ± 0.042 nM
EC50 ([2]; Antagonist Mode, +E2): 0.516 ± 0.479 nM
Percent inhibition compared to vehicle ([2]; Agonist Mode, −E2): 37%
Efficacy (Emax) ([2]; Agonist Mode, −E2): 1.17 ± 0.13
Percent inhibition compared to vehicle ([2]; Antagonist Mode, +E2): 75%
Efficacy (Emax) ([2]; Antagonist Mode, +E2): 1.23 ± 0.09
Percent inhibition compared to vehicle ([3]; Agonist Mode, −E2): 56%
Efficacy (Emax) ([3]; Agonist Mode, −E2): 3.58 ± 0.10
Percent inhibition compared to vehicle ([3]; Antagonist Mode, +E2): 60%
Efficacy (Emax) ([3]; Antagonist Mode, +E2): 3.65 ± 0.56
EC50 ([3]; Agonist Mode, −E2): 4.51 ± 0.313 nM
EC50 ([3]; Antagonist Mode, +E2): 16.4 ± 8.21 nM
EC50 [3, 9]: 4.51 ± 0.313 nM
Percent inhibition compared to vehicle ([4]; Agonist Mode, −E2): 42%
Efficacy (Emax) ([4]; Agonist Mode, −E2): 3.95 ± 0.36
Percent inhibition compared to vehicle ([4]; Antagonist Mode, +E2): 48%
Efficacy (Emax) ([4]; Antagonist Mode, +E2): 3.53 ± 0.28
EC50 ([4]; Agonist Mode, −E2): 6.29 ± 1.13 nM
EC50 ([4]; Antagonist Mode, +E2): 35 ± 2.77 nM
EC50 [4, 9]: 6.29 ± 1.13 nM
EC50 ([5]; Agonist Mode, −E2): 0.257 ± 0.09 nM
EC50 ([5]; Antagonist Mode, +E2): 2.3 ± 1.81 nM
Percent inhibition compared to vehicle ([5]; Agonist Mode, −E2): 55%
Efficacy (Emax) ([5]; Agonist Mode, −E2): 1.71 ± 0.22
Percent inhibition compared to vehicle ([5]; Antagonist Mode, +E2): 71%
Efficacy (Emax) ([5]; Antagonist Mode, +E2): 1.71 ± 0.16
Percent inhibition compared to vehicle ([6]; Agonist Mode, −E2): 63%
Efficacy (Emax) ([6]; Agonist Mode, −E2): 2.12 ± 0.23
Percent inhibition compared to vehicle ([6]; Antagonist Mode, +E2): 70%
Efficacy (Emax) ([6]; Antagonist Mode, +E2): 2.04 ± 0.10
EC50 ([6]; Agonist Mode, −E2): 0.895 ± 0.173 nM
EC50 ([6]; Antagonist Mode, +E2): 3.97 ± 0.955 nM
EC50 [6, 9]: 0.895 ± 0.173 nM
EC50 ([7]; Agonist Mode, −E2): 0.178 ± 0.129 nM
EC50 ([7]; Antagonist Mode, +E2): 1.44 ± 0.156 nM
EC50 [7, 9]: 0.178 ± 0.129 nM
Percent inhibition compared to vehicle ([7]; Agonist Mode, −E2): 51%
Efficacy (Emax) ([7]; Agonist Mode, −E2): 1.09 ± 0.16
Percent inhibition compared to vehicle ([7]; Antagonist Mode, +E2): 74%
Efficacy (Emax) ([7]; Antagonist Mode, +E2): 1.04 ± 0.15

C[C@]12CC[C@@H]3c4ccc(O)cc4CC[C@H]3[C@@H]1CC[C@@H]2O [17β-Estradiol]
EC50 ([1]; MCF7, Receptor None (MCF-7 negative control), Agonist Mode, −E2, read-out: Potency (EC50; nM)): 0.279 ± 0.518 nM
Efficacy (Emax) [1, 8]: 4.12 ± 0.88
EC50 ([2]; Agonist Mode, −E2): 0.101 ± 0.16 nM
Efficacy (Emax) ([2]; Agonist Mode, −E2): 4.43 ± 0.88
Efficacy (Emax) ([2]; Antagonist Mode, +E2): 5.12 ± 1.52
Efficacy (Emax) ([3]; Agonist Mode, −E2): 8.49 ± 0.94
Efficacy (Emax) ([3]; Antagonist Mode, +E2): 9.07 ± 0.12
Efficacy (Emax) ([4]; Agonist Mode, −E2): 6.93 ± 1.50
Efficacy (Emax) ([4]; Antagonist Mode, +E2): 6.83 ± 1.36
EC50 ([5]; Agonist Mode, −E2): 0.008 ± 0.006 nM
Efficacy (Emax) ([5]; Agonist Mode, −E2): 5.72 ± 0.74
Efficacy (Emax) ([5]; Antagonist Mode, +E2): 5.92 ± 0.67
Efficacy (Emax) ([6]; Agonist Mode, −E2): 7.35 ± 1.28
Efficacy (Emax) ([6]; Antagonist Mode, +E2): 6.67 ± 1.25
EC50 ([6]; Agonist Mode, −E2): 0.518 ± 0.699 nM
EC50 [6, 9]: 0.518 ± 0.699 nM
EC50 ([7]; Agonist Mode, −E2): 0.02 ± 0.001 nM
EC50 [7, 9]: 0.02 ± 0.001 nM
Efficacy (Emax) ([7]; Antagonist Mode, +E2): 4.24 ± 0.90
